According to patent US11254667B2 (priority 2016, dated 2022):
Values after ≈ are worked out from the molar mass of the structure shown. Where two headings read alike, the source gives them in different places.

Key:
[1] = system: MA9-NRas cells; assay: NRAS IC50 (MA9-NRas cells); type: cell-based
[2] = physchem; details: pH 7.4, aqueous buffer, kinetic from dmso stock
[3] = in vivo; details: NRG/NRGS, mouse, ip, 30 mg/kg
[4] = Homo sapiens, read-out: NRAS IC50
[5] = Homo sapiens; read-out: NRAS IC50

For `COc1cc2ncc(-c3cccc(NC4CCNC4)n3)n2cc1-c1cc[nH]c1` (stereo not drawn) [Compound I-27, 6-(7-methoxy-6-(1H-pyrrol-3-yl)imidazo[1,2-a]pyridin-3-yl)-N-(pyrrolidin-3-yl)pyridin-2-amine], the IC50 [1, 4] was 4.43 µM, the Stability (rat) was >30.0 min and the solubility [2] was 34.3 µg/mL (≈ 91.6 µM).
In the case of `COc1cc2ncc(-c3cccc(N(C)C4CCNC4)n3)n2cc1-c1cn[nH]c1` (stereo not drawn) [Compound I-31, 6-(7-methoxy-6-(1H-pyrazol-4-yl)imidazo[1,2-a]pyridin-3-yl)-N-methyl-N-(pyrrolidin-3-yl)pyridin-2-amine], the IC50 [1, 5] is reported as 16.6 µM, the Stability (rat) is reported as 11.5 min and the solubility [2] is reported as 14.1 µg/mL (≈ 36.2 µM).
In the case of `COc1cc2ncc(-c3cccc(NC4CCNC4)n3)n2cc1-c1cnn(CCN2CCOCC2)c1` (stereo not drawn) [Compound I-26], the IC50 [1, 4] is reported as 15.7 µM, the Stability (rat) is reported as >30.0 min and the solubility [2] is reported as > 72 µg/mL.
For `c1cc(NC2CCNC2)nc(-c2cnc3ccc(-c4cn[nH]c4)cn23)c1` (stereo not drawn) [Compound I-54, 6-(6-(1H-pyrazol-4-yl)imidazo[1,2-a]pyridin-3-yl)-N-(pyrrolidin-3-yl)pyridin-2-amine], the Stability was 7.6 min and the solubility [2] was > 51 µg/mL.
With `COc1cc2ncc(-c3cccc(NC4CCNC4)n3)n2cc1-c1nnn[nH]1` (stereo not drawn) [Compound I-38] the IC50 [1, 4] was 0.002 µM, the Stability (rat) was >30.0 min and the solubility [2] was > 56 µg/mL.
For `Cc1ccn2c(-c3cccc(NC4CNC4)n3)cnc2c1` [Compound I-61, N-(azetidin-3-yl)-6-(7-methylimidazo[1,2-a]pyridin-3-yl)pyridin-2-amine], the Stability (rat) was >30.0 min and the solubility [2] was > 41 µg/mL.
In the case of `Clc1ccc2ncc(-c3cc(Br)cc(NC4CNC4)n3)n2c1` [Compound I-53], the Stability (rat) is reported as >30.0 min and the solubility [2] is reported as 19.5 µg/mL (≈ 51.5 µM).
For `Cn1cc(-c2ccc3ncc(-c4cccc(NC5CNC5)n4)n3c2)cn1` [Compound I-46], the IC50 [1, 4] was 16.6 µM, the Stability (rat) was >30.0 min and the solubility [2] was 43.1 µg/mL (≈ 125 µM).
For `COc1cc(NC2CNC2)nc(-c2cnc3ccc(Cl)cn23)c1` [Compound I-67, N-(azetidin-3-yl)-6-(6-chloroimidazo[1,2-a]pyridin-3-yl)-4-methoxypyridin-2-amine], the Stability (rat) was >30.0 min and the solubility [2] was > 49 µg/mL.
In the case of `COc1cc2ncc(-c3cccc(NC4CCNC4)n3)n2cc1-c1c(C)noc1C` (stereo not drawn) [Compound I-28, 6-(6-(3,5-dimethylisoxazol-4-yl)-7-methoxyimidazo[1,2-a]pyridin-3-yl)-N-(pyrrolidin-3-yl)pyridin-2-amine], the IC50 [1, 5] is reported as 14.8 µM, the Stability (rat) is reported as 15.7 min and the solubility [2] is reported as > 60 µg/mL.
`COc1cc2ncc(-c3cccc(OC4CCNC4)n3)n2cc1-c1cn[nH]c1` (stereo not drawn) [Compound I-32, 7-methoxy-6-(1H-pyrazol-4-yl)-3-(6-(pyrrolidin-3-yloxy)pyridin-2-yl)imidazo[1,2-a]pyri-dine] gave an IC50 [1, 4] of 3.72 µM, a Stability (rat) of 7.7 min and a solubility [2] of 8.2 µg/mL (≈ 21.8 µM).
With `COc1cc2ncc(-c3cccc(NC4CCNC4)n3)n2cc1C#N` (stereo not drawn) [Compound I-39] the IC50 [1, 4] was 5.58 µM, the Stability (rat) was 8.8 min and the solubility [2] was 10.6 µg/mL (≈ 31.7 µM).
With `CN(c1cccc(-c2cnc3ccc(Cl)cn23)n1)C1CCNCC1` [Compound I-51] the Stability was 9.0 min and the solubility [2] was > 50 µg/mL.
Work on `COc1cc2ncc(-c3cccc(NC4CCCNC4)n3)n2cc1-c1cn[nH]c1` (stereo not drawn) [Compound I-29, 6-(7-methoxy-6-(1H-pyrazol-4-yl)imidazo[1,2-a]pyridin-3-yl)-N-(piperidin-3-yl)pyridin-2-amine] yielded an IC50 [1, 4] of 9.35 µM, a Stability (rat) of 9.8 min and a solubility [2] of 35.6 µg/mL (≈ 91.4 µM).
With `COc1cc2ncc(-c3cccc(NC4CCNC4)n3)n2cc1Cl` (stereo not drawn) [Compound I-21, 6-(6-chloro-7-methoxyimidazo[1,2-a]pyridin-3-yl)-N-(pyrrolidin-3-yl)pyridin-2-amine] the Stability (rat) was 27 min and the solubility [2] was 7.7 µg/mL (≈ 22.4 µM).
For `Brc1ccc2ncc(-c3cccc(NC4CNC4)n3)n2c1` [Compound I-52], the Stability (rat) was 19.8 min and the solubility [2] was 41.8 µg/mL (≈ 121 µM).
With `Clc1ccc2ncc(-c3cccc(NC4CCNC4)n3)n2c1` (stereo not drawn) [Compound I-16, 6-(6-chloroimidazo[1,2-a]pyridin-3-yl)-N-(pyrrolidin-3-yl)pyridin-2-amine] the IC50 [1, 4] was 1.76 µM, the Stability (rat) was 25.6 min and the solubility [2] was > 46 µg/mL.
In the case of `c1cc(NC2CNC2)nc(-c2cnc3ccccn23)c1` [Compound I-12, N-(azetidin-3-yl)-6-(imidazo[1,2-a]pyridin-3-yl)pyridin-2-amine], the Stability (rat) is reported as >30.0 min and the solubility [2] is reported as > 39 µg/mL.
With `N#Cc1ccc2ncc(-c3cccc(NC4CNC4)n3)n2c1` [Compound I-60, 3-(6-(azetidin-3-ylamino)pyridin-2-yl)imidazo[1,2-a]pyridine-6-carbonitrile] the Stability (rat) was 16.4 min and the solubility [2] was > 43 µg/mL.
For `Clc1cn2c(-c3cccc(NC4CCNC4)n3)cnc2cc1OCCN1CCOCC1` (stereo not drawn) [Compound I-40], the IC50 [1, 4] was 0.626 µM, the Stability (rat) was >30.0 min and the solubility [2] was > 65 µg/mL.
For `COc1cc2ncc(-c3nc(NC4CCNC4)c(F)cc3F)n2cc1-c1cn[nH]c1` (stereo not drawn) [Compound I-33, 3,5-difluoro-6-(7-methoxy-6-(1H-pyrazol-4-yl)imidazo[1,2-a]pyridin-3-yl)-N-(pyrrolidin-3-yl)pyridin-2-amine], the IC50 [1, 4] was 29.8 µM, the Stability (rat) was 9.3 min and the solubility [2] was 3.9 µg/mL (≈ 9.48 µM).
For `COc1cc2ncc(-c3cccc(NC4CCNC4)n3)n2cc1-c1c(C)n[nH]c1C` (stereo not drawn) [Compound I-25, 6-(6-(3,5-dimethyl-1H-pyrazol-4-yl)-7-methoxyimidazo[1,2-a]pyridin-3-yl)-N-(pyrrolidin-3-yl)pyridin-2-amine], the IC50 [1, 5] was 15.7 µM, the Stability (rat) was >30.0 min and the solubility [2] was > 60 µg/mL.
In the case of `Clc1cc2ncc(-c3cccc(NC4CNC4)n3)n2cc1Cl` [Compound I-62], the Stability (rat) is reported as >30.0 min and the solubility [2] is reported as 41.5 µg/mL (≈ 124 µM).
In the case of `Cc1ccc(NC2CNC2)nc1-c1cnc2ccc(Cl)cn12` [Compound I-49], the Stability (rat) is reported as 26.2 min and the solubility [2] is reported as > 46 µg/mL.
For `Cc1cc(NC2CNC2)nc(-c2cnc3ccc(Cl)cn23)c1` [Compound I-55, N-(azetidin-3-yl)-6-(6-chloroimidazo[1,2-a]pyridin-3-yl)-4-methylpyridin-2-amine], the solubility [2] was > 46 µg/mL.
With `N#CCC(=O)N1CC(Nc2cccc(-c3cnc4ccc(Cl)cn34)n2)C1` [Compound I-59] the Stability (rat) was >30.0 min and the solubility [2] was 18.3 µg/mL (≈ 49.9 µM).
In the case of `COc1cc2ncc(-c3cccc(NC4CCNC4)n3)n2cc1-c1ccncc1` (stereo not drawn) [Compound I-23, 6-(7-methoxy-6-(pyridin-4-yl)imidazo[1,2-a]pyridin-3-yl)-N-(pyrrolidin-3-yl)pyridin-2-amine], the IC50 [1, 4] is reported as 1.83 µM, the Stability (rat) is reported as >30.0 min and the solubility [2] is reported as 11.6 µg/mL (≈ 30 µM).
For `COc1cc2ncc(-c3cccc(NC4CCNC4)n3)n2cc1-c1cccnc1` (stereo not drawn) [Compound I-22, 6-(7-methoxy-6-(pyridin-3-yl)imidazo[1,2-a]pyridin-3-yl)-N-(pyrrolidin-3-yl)pyridin-2-amine], the AUC(0-inf) [3] was 4850 ng·h/mL, the Cmax [3] was 1540 ng/mL and the Tmax [3] was 30 min. It also gave a solubility [2] of 29 µg/mL (≈ 75 µM) and a solubility kinetic [2] of 29 µM (≈ 11.2 µg/mL).
With `O=C(c1ccccc1)N1CC(Nc2cccc(-c3cnc4ccc(Cl)cn34)n2)C1` [Compound I-58] the Stability (rat) was 8.0 min and the solubility [2] was < 1 µg/mL.
With `Clc1ccn2c(-c3cccc(NC4CNC4)n3)cnc2c1` [Compound I-63, N-(azetidin-3-yl)-6-(7-chloroimidazo[1,2-a]pyridin-3-yl)pyridin-2-amine] the solubility [2] was > 44 µg/mL.
In the case of `Cc1ccc(-c2cnc3ccc(Cl)cn23)nc1NC1CNC1` [Compound I-48], the Stability (rat) is reported as 11.8 min and the solubility [2] is reported as > 46 µg/mL.
With `CCN1CCN(c2ccc3ncc(-c4cccc(NC5CNC5)n4)n3c2)CC1` [Compound I-64] the solubility [2] was > 56 µg/mL.
`COc1cc2ncc(-c3cccc(NC4CCNCC4)n3)n2cc1-c1cn[nH]c1` [Compound I-30] gave a Stability (rat) of 24.7 min and a solubility [2] of 12.3 µg/mL (≈ 31.6 µM).
`c1cc(N[C@H]2CCNC2)nc(-c2cnc3ccc(-c4cn[nH]c4)cn23)c1` [Compound I-44] gave a Stability of 6.7 min and a solubility [2] of 42.6 µg/mL (≈ 123 µM).
With `Fc1cc(F)c(-c2cnc3ccc(Cl)cn23)nc1NC1CNC1` [Compound I-47] the IC50 [1, 4] was 1.88 µM, the Stability (rat) was >30.0 min and the solubility [2] was > 50 µg/mL.
In the case of `COc1cc2ncc(-c3cccc(NC4CCNC4)n3)n2cc1OC` (stereo not drawn) [Compound I-36], the IC50 [1, 4] is reported as 4.43 µM, the Stability (rat) is reported as >30.0 min and the solubility [2] is reported as > 50 µg/mL.
With `COc1ccn2c(-c3cccc(NC4CNC4)n3)cnc2c1` [Compound I-50, N-(azetidin-3-yl)-6-(7-methoxyimidazo[1,2-a]pyridin-3-yl)pyridin-2-amine] the Stability (rat) was >30.0 min and the solubility [2] was > 44 µg/mL.
With `CC(=O)N1CC(Nc2cccc(-c3cnc4ccc(Cl)cn34)n2)C1` [Compound I-57] the Stability (rat) was >30.0 min and the solubility [2] was > 50 µg/mL.
For `COc1cc(Cl)cn2c(-c3cccc(NC4CNC4)n3)cnc12` [Compound I-42, N-(azetidin-3-yl)-6-(6-chloro-8-methoxyimidazo[1,2-a]pyridin-3-yl)pyridin-2-amine], the IC50 [1, 4] was 20.9 µM, the Stability was >30 min and the solubility [2] was > 49 µg/mL.
With `C#Cc1cn2c(-c3cccc(NC4CCNC4)n3)cnc2cc1OC` (stereo not drawn) [Compound I-68, 6-(6-ethynyl-7-methoxyimidazo[1,2-a]pyridin-3-yl)-N-(pyrrolidin-3-yl)pyridin-2-amine] the Stability (rat) was 11.6 min and the solubility [2] was > 49 µg/mL.
With `COc1cc(-c2cn[nH]c2)cn2c(-c3cccc(NC4CCNC4)n3)cnc12` (stereo not drawn) [Compound I-37] the IC50 [1, 4] was 16.6 µM, the Stability (rat) was 2.3 min and the solubility [2] was > 55 µg/mL.
In the case of `c1cc(NC2CCNC2)nc(-c2cnc3cc(OCCN4CCOCC4)c(-c4cn[nH]c4)cn23)c1` (stereo not drawn) [Compound I-41, 6-(7-(2-morpholinoethoxy)-6-(1H-pyrazol-4-yl)imidazo[1,2-a]pyridin-3-yl)-N-(pyrrolidin-3-yl)pyridin-2-amine], the IC50 [1, 4] is reported as 17.6 µM, the Stability (rat) is reported as >30.0 min and the solubility [2] is reported as > 70 µg/mL.
In the case of `c1cc(NC2CNC2)nc(-c2cnc3ccc(-c4cn[nH]c4)cn23)c1` [Compound I-45], the IC50 [1, 4] is reported as 4.29 µM and the solubility [2] is reported as > 49 µg/mL.
